Laboratory results published in patent US5106762A, “Ligand-label conjugates which contain polyoxoanions of sulfur or phosphorus” (Georgetown University, priority 1990, dated 1992).

Legend:
[1] = Determination of fluorescence lifetime (variable frequency phase fluorimeter); assay type: physicochemical
Protocol: The fluorescence lifetime of the DNP-fluorescein conjugates was measured on an ISS Greg-200 variable frequency phase fluorimeter as described previously (Lakowicz et al, Biophys. J., vol. 46, pp. 463-477 (1984) and Gratton et al, Biophys. J., vol. 46, pp. 479-486 (1984)) using 1-chloro-bis-(phenylethynyl)anthracene (Aldrich) in ethanol (3.791 ns) as a reference (Thompson et al. Anal. Chem., vol. 60, pp. 670-674 (1988)). The resulting phase and modulation data for DNP-Ins-FL were fit to one, two, and three emissive components using a Simplex algorithm supplied by ISS. […] When the data were fit to a three component model, the third component was weak (<5%), poorly defined (1.1±3.2 ns), and gave no improvement in X^2. Therefore, a third component appears to be unnecessary to fit the data. Since the DNP moiety has the ability to quench the fluorescein emission, the data are best explained by two fluorescein residues being remote from and unquenched by the DNP group with the third fluorescein residue being closer and subject to quenching. In accord with this explanation is the observation that the fluorescence of the DNP-lysine-fluorescein derivative was substantially quenched as shown by its reduced quantum efficiency and subanosecond fluorescence lifetime.

non-immune mouse IgG = assay: Nonspecific binding of DNP-conjugates to IgG-Sepharose; settings: for DNP-Conjugate Bound / Ratio of Bound DNP-Conjugate to Immobilized IgG: binding to non-immune IgG; for DNP-Conjugate Bound: applied conjugate to immobilized IgG 3.0 moles/moles; for Ratio of Bound DNP-Conjugate to Immobilized IgG: applied ratio 3.0
Protocol: (§1) Fluorescence intensity was measured on a SLM 8000 fluorimeter at 490 nm excitation and 519 nm emission. Individual fluorescence standard curves with known concentrations of the different DNP-fluorescein conjugates were used to calculate the amounts of DNP-conjugates from fluorescence units. Antibodies were coupled to tresyl chloride-activated Sepharose 4B (Sigma) at a concentration of 200 ug antibody/100 mg gel according to the manufacturer's recommendation. The amount of immobilized antibody was determined using a Coomassie blue assay as described in Ahmad et al, Anal. Biochem., vol. 148, pp 533-541 (1985). Peptide and protein determinations in fluid-phase were performed by UV absorbance at 280 nm, by the bicinchoninic acid method (Smith et al, Anal. Biochem., vol. 150, pp. 76-85 (1985)) using the Pierce BCA Protein Assay Reagent (Pierce), and by the Folin-Ciocalteau method (Lowry et al, J. Biol. chem., vol. 193, pp. 265 (1951)). The A-chain of bovine insulin (oxidized to the S-sulfonate form) (Sigma), the DNP-Ins conjugate, and the DNP-Ins-Flu conjugate were radiolabeled with Na^125 I (Amersham, Arlington Heights, IL) using immobilized chloramine-T (Iodo-Beads; Pierce, Rockford, IL) (Petrella et al, J. Immunol. Methods, vol. 104, pp. 159-172 (1987)).
(§2) Specific binding of the DNP-conjugates was determined with the murine monoclonal anti-DNP antibody #51 (Stanley et al, J. Immunol. Methods, vol. 64, pp. 119-132 (1983) and Steward et al, J. Immunol. Methods, vol. 78, pp. 173-190 (1985)) coupled to tresyl chloride-activated Sepharose 4B (anti-DNP-Sepharose) The monoclonal IgG1 antibody #51 (purified from ascites) was kindly provided by Dr. M. W. Steward (Dept. of Medical Microbiology, London School of Hygiene and Tropical Medicine, London, U.K.). Nonspecific binding was measured with Sepharose 4B-immobilized non-immune mouse IgG purified from mouse serum (Jackson ImmunoResearch Laboratories, West Grove, PA) (IgG-Sepharose). After removal of buffer by vacuum filtration on a scintered glass funnel, 50 mg aliquots of Sepharose 4B-antibody matrices were transferred to plastic conical vials and incubated with ^125 I-labeled DNP-insulin A-chain-fluorescein conjugate (1.6×10^6 cpm/nmole), or ^125 I-labeled DNP-insulin A-chain conjugate without attached fluorescein residues (3.3×10^6 cpm/nmole), or non-radiolabeled DNP-Lys-Fl at a 3 to 1 molar ratio of DNP-derivative to immobilized IgG in 10 mM phosphate/150 mM NaCl, pH 7.6, overnight at 4° C. on a rocking platform. Unbound conjugate was recovered by poking a hole in the bottom of the plastic vial with a 30 gauge needle, loading the vial on the top of a glass test tube, and centrifuging. Subsequent washing steps were performed with 150 μl of 10 mM phosphate/150 mM NaCl/0.1% (v/v) Triton X-100, pH 7.6. Aliquots of the solutions collected in the bottom of the test tubes after centrifugation were assayed for radioactivity or fluorescence.

[2] = test system: murine monoclonal anti-DNP antibody #51; assay: Binding of DNP-conjugates to anti-DNP-Sepharose; settings: for binding to anti-DNP-Sepharose after extensive washing (FIG. 3): 3:1 molar ratio of conjugate to immobilized antibody; for amount specifically bound to the antigen binding sites of immobilized antibody #51: after subtraction of non-specific binding to non-immune IgG-Sepharose; for DNP-Conjugate Bound / Ratio of Bound DNP-Conjugate to Immobilized IgG: binding to anti-DNP IgG1; for DNP-Conjugate Bound: applied conjugate to immobilized IgG 3.0 moles/moles, insulin conjugates 125I-labeled; for Ratio of Bound DNP-Conjugate to Immobilized IgG: applied ratio 3.0
Protocol: as §1, §2

[3] = test system: immobilized monoclonal anti-DNP antibody #51; assay: Displacement of DNP-conjugates from immobilized monoclonal anti-DNP antibody by DNP-lysine; assay type: binding, murine; settings: for Displacement of Antibody-Bound DNP-Conjugate by DNP-Lysine: ± S.D., free DNP-lysine to antibody-bound conjugate 2.0 (DNP-Lys-Fl) or 3.4 (DNP-Ins-Fl, DNP-Ins) mole/mole
Protocol: as §2
Aliquots of anti-DNP-Sepharose (50 mg) were incubated with ^125 I-labeled DNP-insulin A-chain, or ^125 I-labeled DNP-insulin A-chain-fluorescein, or DNP-lysine-fluorescein and washed with 10 mM phosphate/150 mM NaCl/0.1% (v/v) Triton X-100, pH 7.6 , as described above in Specific and Nonspecific Binding of DNP-Conjugates. […] Displacement was determined by assaying aliquots of the solutions collected in the bottom of the test tubes after centrifugation for radioactivity or fluorescence.

Row | Molecule | fluorescence lifetime ([1]; in words) | non-specific binding of DNP-Lys-Fl to immobilized non-immune IgG relative to DNP-Ins-Fl (non-immune mouse IgG) | DNP-Conjugate Bound (non-immune mouse IgG) | Ratio of Bound DNP-Conjugate to Immobilized IgG (non-immune mouse IgG) | binding to anti-DNP-Sepharose after extensive washing (FIG. 3) [2] | fold difference in binding of DNP-Lys-Fl versus DNP-Ins-Fl to anti-DNP-Sepharose ([2]; 3:1 molar ratio, after extensive washing) | amount specifically bound to the antigen binding sites of immobilized antibody #51 [2] | DNP-Conjugate Bound [2] | Ratio of Bound DNP-Conjugate to Immobilized IgG [2] | Displacement of Antibody-Bound DNP-Conjugate by DNP-Lysine [3] | fluorescence lifetime, shorter lifetime component ([1]; two component fit) | fraction of first lifetime component ([1]; two component fit) | fraction of shorter lifetime component ([1]; two component fit) | fluorescence lifetime, first component ([1]; two component fit, X^2 =1.26) | non-specific binding of DNP-Ins-Fl relative to DNP-Lys-Fl (non-immune mouse IgG; see Table II) | efficiency of displacement by DNP-lysine relative to DNP-Ins [3] | efficiency of displacement by DNP-lysine relative to DNP-Lys-Fl ([3]; under comparable conditions)
1 | O=C(O)c1cc(NC(=S)N[C@@H](CCCCNc2ccc([N+](=O)[O-])cc2[N+](=O)[O-])C(=O)O)ccc1-c1c2ccc(=O)cc-2oc2cc(O)ccc12 [DNP-Lys-Fl, DNP-lysine-fluorescein, reference compound] | subanosecond | three-fold higher | 1.27 ± 0.07 nmol | 1.5 moles/moles | 62.7% | 1.6 fold | 0.4 mole conjugate/mole antibody | 0.37 ± 0.02 nmol | 1.9 moles/moles | 0.45 ± 0.14 pmol |  |  |  |  |  |  | 
2 | DNP-insulin A-chain-fluorescein [DNP-Ins-Fl] |  |  | 0.44 ± 0.16 nmol | 0.5 moles/moles | 38.8% |  | 0.7 mole conjugate/mole antibody | 0.11 ± 0.03 nmol | 1.2 moles/moles | 3.20 ± 0.70 pmol | 2.068±0.150 ns | 64±7% | 36% | 4.091±0.177 ns | about one-third | two-fold more efficient | much more efficient
3 | dinitrophenyl-insulin A-chain [DNP-Ins] |  |  |  |  |  |  |  | 0.11 ± 0.01 nmol | 1.2 moles/moles | 1.56 ± 0.01 pmol |  |  |  |  |  |  | 
